Results reported in US20090270350A1, “Pyridinone Pyrazole Urea and Pyrimidinone Pyrazole Urea Derivatives” (PFIZER INC., priority 2006, published 2009).

Biological target: p38α (Homo sapiens, UniProt Q16539)
Assay: p38α/MK2 cascade assay
Format: biochemical
Details: Table 1; inhibitors preincubated with p38α for 40 minutes; phosphorylation of Hsp27 peptide by MK-2, Caliper LabChip 3000; read-out: p38a/MK2 Cascade 40 min Pre-Incuabtion (% Inhibition): IC50
Description: The ability of compounds to inhibit activated p38α was determined in a p38α/MK-2 cascade assay format. The kinase activity of p38α is determined by its ability to phosphorylate/activate nonactive MK2 (54-400). Activation of MK-2 by p38α is measured by following the phosphorylation of a MK-2 specific peptide, Hsp27 peptide (FITC-KKKALSRQLSVAA). The phosphorylation of the Hsp27 peptide was quantified using the Caliper LabChip 3000. The kinase reactions were carried out in 20 mM HEPES pH 7.5, 10 mM MgCl2, 0.0005% Tween-20, 0.01% BSA, 1 mM DTT, and 2% DMSO. The inhibitors were varied between 1000-0.05 nM, while the Hsp27 peptide substrate, MgATP, and nonactive MK-2 (54-400) were held constant at 0.5 µM, 5 µM, and 1 nM, respectively. Inhibitors were preincubated with p38α for 40 minutes prior to initiating the reaction with peptide, MgATP, and MK-2. The kinase reactions were quenched after 60 minutes by the addition of stop buffer (180 mM HEPES, 30 mM EDTA, and 0.2% Coating Reagent-3).
The above protocol assay was used to determine the IC50 values for some of the compounds in the above Examples.
IC50 values were determined for the compounds listed in Table 2, using the same p38α/MK2 cascade assay used to determine the IC50 values for the compounds in Table 1. The compounds of Table 2 were prepared using methods similar to those listed in the Examples for compounds of Table 1.

Chain of p38α (Q16539 whole entry): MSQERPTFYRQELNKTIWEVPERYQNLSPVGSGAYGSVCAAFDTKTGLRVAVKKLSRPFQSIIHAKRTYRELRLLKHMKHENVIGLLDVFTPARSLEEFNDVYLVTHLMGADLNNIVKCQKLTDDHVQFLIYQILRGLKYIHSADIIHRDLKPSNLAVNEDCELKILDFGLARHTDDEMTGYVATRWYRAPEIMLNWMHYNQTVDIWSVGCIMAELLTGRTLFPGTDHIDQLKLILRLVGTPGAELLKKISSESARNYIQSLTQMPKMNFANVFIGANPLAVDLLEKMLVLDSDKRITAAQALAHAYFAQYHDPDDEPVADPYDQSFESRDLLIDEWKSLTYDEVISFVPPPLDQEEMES

IC50 [nM] | SMILES
117 | COc1ccc(Cn2c(C)cc(OCc3ccccc3CNC(=O)Nc3cc(C(C)(C)C)nn3-c3ccc(O)cc3)cc2=O)cc1 [Example 54, 1-[3-tert-butyl-1-(4-hydroxyphenyl)-1H-pyrazol-5-yl]-3-[2-({[1-(4-methoxybenzyl)-6-methyl-2-oxo-1,2-dihydropyridin-4-yl]oxy}methyl)benzyl]urea]
24.3 | COc1ccc(Cn2c(C)cc(OCc3ccccc3CNC(=O)Nc3cc(C(C)(C)C)nn3-c3cccc(O)c3)cc2=O)cc1 [Example 55, 1-[3-tert-butyl-1-(3-hydroxyphenyl)-1H-pyrazol-5-yl]-3-[2-({[1-(4-methoxybenzyl)-6-methyl-2-oxo-1,2-dihydropyridin-4-yl]oxy}methyl)benzyl]urea]
39.2 | COc1ccc(Cn2c(C)cc(OCc3ccccc3CNC(=O)Nc3cc(C(C)(C)C)nn3-c3ccc(O)c(Cl)c3)cc2=O)cc1 [Example 56, 1-[3-tert-butyl-1-(3-chloro-4-hydroxyphenyl)-1H-pyrazol-5-yl]-3-[2-({[1-(4-methoxybenzyl)-6-methyl-2-oxo-1,2-dihydropyridin-4-yl]oxy}methyl)benzyl]urea]
9.3 | COc1ccc(Cn2c(C)cc(OCc3ccccc3CNC(=O)Nc3cc(C(C)(C)C)nn3-c3cccc(OCCO)c3)c(Cl)c2=O)cc1 [Example 57, 1-{3-tert-butyl-1-[3-(2-hydroxyethoxy)phenyl]-1H-pyrazol-5-yl}-3-[2-({[3-chloro-1-(4-methoxybenzyl)-6-methyl-2-oxo-1,2-dihydropyridin-4-yl]oxy}methyl)benzyl]urea]
4.6 | COc1ccc(Cn2c(C)cc(OCc3ccccc3CNC(=O)Nc3cc(C(C)(C)C)nn3-c3ccc(O)c(Cl)c3)c(Cl)c2=O)cc1 [Example 58, 1-[3-tert-butyl-1-(3-chloro-4-hydroxyphenyl)-1H-pyrazol-5-yl]-3-[2-({[3-chloro-1-(4-methoxybenzyl)-6-methyl-2-oxo-1,2-dihydropyridin-4-yl]oxy}methyl)benzyl]urea]
3.7 | COc1ccc(Cn2c(C)cc(OCc3ccc(F)cc3CNC(=O)Nc3cc(C(C)(C)C)nn3-c3cccc(OCCO)c3)c(Cl)c2=O)cc1 [Example 60, 1-{3-tert-butyl-1-[3-(2-hydroxyethoxy)phenyl]-1H-pyrazol-5-yl}-3-[2-({[3-chloro-1-(4-methoxybenzyl)-6-methyl-2-oxo-1,2-dihydropyridin-4-yl]oxy}methyl)-5-fluorobenzyl]urea]
4.5 | COc1ccc(Cn2c(C)cc(OCc3ccc(F)cc3CNC(=O)Nc3cc(C(C)(C)C)nn3-c3ccc(O)c(Cl)c3)c(Cl)c2=O)cc1 [Example 62, 1-[3-tert-butyl-1-(3-chloro-4-hydroxyphenyl)-1H-pyrazol-5-yl]-3-[2-({[3-chloro-1-(4-methoxybenzyl)-6-methyl-2-oxo-1,2-dihydropyridin-4-yl]oxy}methyl)-5-fluorobenzyl]urea]
7.5 | COc1ccc(Cn2c(C)cc(OCc3ccccc3CNC(=O)Nc3cc(C(C)(C)C)nn3-c3ccc(O)cc3)c(Cl)c2=O)cc1Cl [Example 64, 1-[3-tert-butyl-1-(4-hydroxyphenyl)-1H-pyrazol-5-yl]-3-[2-({[3-chloro-1-(3-chloro-4-methoxybenzyl)-6-methyl-2-oxo-1,2-dihydropyridin-4-yl]oxy}methyl)benzyl]urea]
6.9 | COc1ccc(Cn2c(C)cc(OCc3ccccc3CNC(=O)Nc3cc(C(C)(C)C)nn3-c3cccc(O)c3)c(Cl)c2=O)cc1Cl [Example 65, 1-[3-tert-butyl-1-(3-hydroxyphenyl)-1H-pyrazol-5-yl]-3-[2-({[3-chloro-1-(3-chloro-4-methoxybenzyl)-6-methyl-2-oxo-1,2-dihydropyridin-4-yl]oxy}methyl)benzyl]urea]
9.7 | COc1ccc(Cn2c(C)cc(OCc3ccccc3CNC(=O)Nc3cc(C(C)(C)C)nn3-c3ccc(O)c(Cl)c3)c(Cl)c2=O)cc1Cl [Example 66, 1-[3-tert-butyl-1-(3-chloro-4-hydroxyphenyl)-1H-pyrazol-5-yl]-3-[2-({[3-chloro-1-(3-chloro-4-methoxybenzyl)-6-methyl-2-oxo-1,2-dihydropyridin-4-yl]oxy}methyl)benzyl]urea]
